The supplement of paper PMC12317010
Counter-ions that a name gives are not always drawn.

Experiment: collision cross section in nitrogen (drift tube, single-field); higher = larger gas-phase ion size
[1] = ion type: [M-H], ion source: ESI, ion mode: Negative
[2] = ion type: [M+H], ion source: ESI, ion mode: Positive
[3] = ion type: [M+Na], ion source: ESI, ion mode: Positive
[4] = ion type: [M+H], ion source: APCI, ion mode: Positive
[5] = ion type: [M+], ion source: APCI, ion mode: Positive
[6] = ion source: ESI, ion mode: Positive, ion type: [M]+ (permanent cation)
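Further: chemical standards at 10 µM analysed by drift tube IMS-QTOF MS in about 3.95 torr nitrogen, mean of duplicate injections differing ≤1%, mass error below 10 ppm.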

Compound | collision cross section in nitrogen [1] | collision cross section in nitrogen [2] | collision cross section in nitrogen [3] | further results
CCn1c2ccccc2c2cc([N+](=O)[O-])ccc21 [9-Ethyl-3-nitro-9H-carbazole] |  | 152 Å² |  | 
CCCCC(CC)COC(=O)c1ccc(C(=O)OCC(CC)CCCC)c(C(=O)OCC(CC)CCCC)c1 (centres undefined) [Tris(2-ethylhexyl) trimellitate] |  | 256.5 Å² | 264.6 Å² | 
NC(=O)N1C(=O)C(C(=O)c2cc(Cl)cs2)c2cc(F)c(Cl)cc21 (centres undefined) | 173.7 Å² |  |  | 
Nc1ccc(F)c([N+](=O)[O-])c1 [4-Fluoro-3-nitroaniline] | 121.9 Å² |  |  | 
CC(C)(C)C(O)/C(=C\c1ccc(Cl)cc1Cl)n1cncn1 (centres undefined) [Diniconazole] |  | 177.1 Å² |  | collision cross section in nitrogen [4]: 177.9 Å²
Oc1c(I)cc(I)cc1I [2,4,6-Triiodophenol] | 143.5 Å² |  |  | collision cross section in nitrogen [5]: 139.5 Å²
Clc1ccc2[nH]nnc2c1 [5-Chlorobenzotriazole] | 123.2 Å² | 128.5 Å² |  | 
C=CCc1ccc(OC(=O)Cc2ccccc2)c(OC)c1 [Eugenyl phenylacetate] |  |  | 175.7 Å² | 
C[N+](C)(C)CC1CO1 (centres undefined) [Glycidyl trimethylammonium chloride] |  |  |  | collision cross section in nitrogen [6]: 120.7 Å²
CCNc1nc(NC(C)C)nc(SC)n1 [Ametryn] |  | 155.5 Å² |  | collision cross section in nitrogen [4]: 155.2 Å²
O=[N+]([O-])c1ccc(-c2nnc(O)o2)o1 [5-(5-Nitro-2-furyl)-1,3,4-oxadiazole-2-ol] | 135.2 Å² |  |  | 
CCC(C)(c1ccc(O)cc1)c1ccc(O)cc1 [Bisphenol B] | 165.8 Å² |  |  | 
C=CC(=O)NCNC(=O)C=C [N,N'-Methylenebisacrylamide] |  |  | 138.1 Å² | 
Cc1cc(O)ccc1Cl [4-Chloro-3-methylphenol] | 125.9 Å² |  |  | 
O=C(c1ccccc1)c1ccc(O)cc1O [2,4-Dihydroxybenzophenone] | 148.3 Å² |  |  | 
O=C(Nc1ccccc1)c1cc(Cl)ccc1O [5-Chlorosalicylanilide] | 151.9 Å² |  |  | 
CCCCCCCCCCCCCC[N+](C)(C)C [Tetradonium bromide] |  |  |  | collision cross section in nitrogen (ion source: APCI, ion mode: Positive, ion type: [M]+ (permanent cation)): 185.1 Å²; collision cross section in nitrogen [6]: 185.7 Å²
O=S(=O)(NS(=O)(=O)C(F)(F)F)C(F)(F)F [Lithium bis[(trifluoromethyl)sulfonyl]azanide] | 129.9 Å² |  |  | 

Compound | collision cross section in nitrogen [1] | collision cross section in nitrogen [2] | collision cross section in nitrogen [3] | further results
O=C1c2ccccc2C(=O)C1C(=O)C(c1ccccc1)c1ccc(Cl)cc1 (centres undefined) [Chlorophacinone] | 193.2 Å² |  |  | 
COC(=O)c1c(C(F)F)nc(C(F)(F)F)c(C2=NCCS2)c1CC(C)C [Thiazopyr] | 182.6 Å² | 182.1 Å² | 192.1 Å² | collision cross section in nitrogen [4]: 183.2 Å²
CCCCCCCCCCCC[N+](C)(C)C [Dodecyltrimethylammonium bromide] |  |  |  | collision cross section in nitrogen [6]: 175.8 Å²
O=C(Nc1ccccc1)Nc1ccnc(Cl)c1 [Forchlorfenuron] | 155.2 Å² | 156.9 Å² |  | collision cross section in nitrogen [4]: 156.5 Å²
CCCCOc1ccc(N)cc1 [4-Butyloxyaniline] |  | 153.5 Å² |  | 
CCOC(=O)C(C)OC(=O)c1cc(Oc2ccc(C(F)(F)F)cc2Cl)ccc1[N+](=O)[O-] (centres undefined) [Lactofen] | 196 Å² |  | 212.7 Å² | 
CCCCC(CC)COC(=O)c1ccccc1C(=O)O (centres undefined) [Mono(2-ethylhexyl) phthalate] | 169.2 Å² |  | 182.1 Å² | 
CCCCC(CC)COP(=O)(Oc1ccccc1)Oc1ccccc1 (centres undefined) [2-Ethylhexyl diphenyl phosphate] |  |  | 200.9 Å² | 
N#Cc1ccc(O)cc1 [4-Hydroxybenzonitrile] | 118.1 Å² |  |  | 
Cc1ccccc1C(=O)Nc1cccc(OC(C)C)c1 [Mepronil] | 172.6 Å² | 169.4 Å² | 180.1 Å² | collision cross section in nitrogen [4]: 169.9 Å²
Cc1cc(C2(c3ccc(O)c(C)c3)C(=O)Nc3ccccc32)ccc1O [1,3-Dihydro-3,3-bis(4-hydroxy-m-tolyl)-2H-indol-2-one] | 190.8 Å² | 185.4 Å² | 196.6 Å² | 
Cc1cc(Br)ccc1NC(=O)CCl [2-Chloro-N-(2-methyl-4-bromophenyl)acetamide] | 146 Å² |  |  | 
CC(C)CP(=S)(S)CC(C)C [Sodium diisobutyldithiophosphinate] | 146.5 Å² |  |  | 
O=C(O)CCN(C1(C(=O)NO)CCCC1)S(=O)(=O)c1ccc(Oc2ccc(F)cc2)cc1 | 198.1 Å² |  | 211 Å² | 
CCCC1COC(Cn2cncn2)(c2ccc(Cl)cc2Cl)O1 (centres undefined) [Propiconazole] |  | 179.8 Å² |  | collision cross section in nitrogen [4]: 180.9 Å²
COc1cc(OC)nc(NC(=O)NS(=O)(=O)c2ncccc2C(=O)N(C)C)n1 [Nicosulfuron] |  |  | 196.2 Å² | 
CCCCCCCCn1sccc1=O [2-n-Octyl-4-isothiazolin-3-one] |  | 158 Å² |  | collision cross section in nitrogen [4]: 158.3 Å²
CCCCCCCCOC(=O)c1ccc(C(=O)OCCCCCCCC)c(C(=O)OCCCCCCCC)c1 [Tri-n-octyl trimellitate] |  | 259 Å² | 263.7 Å² | 

Second part, led by results:

collision cross section in nitrogen [1] | collision cross section in nitrogen [2] | collision cross section in nitrogen [3] | Compound | further results
121 Å² |  |  | Cc1c[nH]c(=O)[nH]c1=O [Thymine] | 
132.3 Å² |  | 143.4 Å² | OC[C@@H](O)[C@@H](O)[C@H](O)[C@@H](O)CO [D-Glucitol] | 
202.5 Å² |  | 201.7 Å² | C[C@H](CCC(=O)NCC(=O)O)[C@H]1CC[C@H]2[C@@H]3[C@H](O)C[C@@H]4C[C@H](O)CC[C@]4(C)[C@H]3C[C@H](O)[C@]12C [Glycocholic acid] | 
226.4 Å² | 224.4 Å² | 222.5 Å² | COCCOC[C@H](CC1(C(=O)N[C@H]2CC[C@@H](C(=O)O)CC2)CCCC1)C(=O)Oc1ccc2c(c1)CCC2 [Candoxatril] | collision cross section in nitrogen [4]: 224.2 Å²
 | 192.8 Å² | 198.4 Å² | CC(C)OC(=O)C(C)(C)Oc1ccc(C(=O)c2ccc(Cl)cc2)cc1 [Fenofibrate] | 
113.1 Å² |  |  | COS(=O)(=O)O [Sodium methyl sulfate] | 
 |  | 155.9 Å² | CCOC(=O)CC(=O)c1ccccc1 [Ethyl benzoylacetate] | 
120.5 Å² |  |  | O=[N+]([O-])c1ccc(O)cc1 [Sodium 4-nitrophenolate] | 
138.5 Å² |  |  | Cc1ccc(C)c(S(=O)(=O)O)c1 [Sodium 2,5-dimethylbenzenesulfonate] | 
 | 137.8 Å² |  | c1ccc(Nc2ccccc2)cc1 [Diphenylamine] | collision cross section in nitrogen [5]: 133.9 Å²
 | 124.2 Å² |  | O=C(O)c1cccnc1 [Nicotinic acid] | 
187 Å² | 185.2 Å² | 185.5 Å² | COc1ccnc(CS(=O)c2nc3cc(OC(F)F)ccc3[nH]2)c1OC (centres undefined) [Pantoprazole sodium] | collision cross section in nitrogen [4]: 185.5 Å²
147.5 Å² |  |  | CC(C)c1ccc(S(=O)(=O)O)cc1 [Sodium 4-isopropylbenzenesulfonate] | 
149.5 Å² |  |  | CCCCCCCCCC(=O)O [Decanoic acid] | 
174.3 Å² |  | 182.7 Å² | O=C1C=CC(=O)N1c1ccc(Cc2ccc(N3C(=O)C=CC3=O)cc2)cc1 [Bismaleimide] | collision cross section in nitrogen [4]: 197.5 Å²
186 Å² | 208.8 Å² | 211.8 Å² | O=C(O)c1cc(=O)c2c(OCC(O)COc3cccc4oc(C(=O)O)cc(=O)c34)cccc2o1 [Cromolyn sodium] | 
 | 207 Å² | 214.3 Å² | CCN(CC)CCNC(=O)c1c(C)[nH]c(/C=C2\C(=O)Nc3ccc(F)cc32)c1C [Sunitinib malate] | 
 | 188.3 Å² | 204.8 Å² | O=C(O)c1cn(-c2ccc(F)cc2)c2cc(N3CCNCC3)c(F)cc2c1=O [Sarafloxacin] | collision cross section in nitrogen [4]: 188.2 Å²
 | 167.9 Å² |  | OC12N=C(c3ccccc3)SC1Cc1cc(Cl)ccc12 (centres undefined) [HMR1426] | collision cross section in nitrogen [4]: 167.8 Å²
164.1 Å² |  |  | O=c1c(O)c(-c2ccc(O)cc2O)oc2cc(O)cc(O)c12 [Morin hydrate] | 
148.4 Å² | 148.8 Å² |  | CCCCNC(=S)NCCCC [N,N'-Dibutylthiourea] | collision cross section in nitrogen [4]: 148.6 Å²
113.6 Å² |  |  | C=CS(=O)(=O)O [Sodium ethenesulfonate] | 
186.1 Å² | 188 Å² | 207.3 Å² | CC(C)(C)c1cc(/C=C2\SC(=N)NC2=O)cc(C(C)(C)C)c1O [Darbufelone mesylate] | collision cross section in nitrogen [4]: 188.3 Å²
162 Å² |  |  | CCCCCCCCCCCCOC(C)=O [Dodecyl acetate] | 
162.2 Å² |  |  | CCCCCCCCOC(=O)c1ccccc1O [Octyl salicylate] | 
204.3 Å² |  |  | CS(=O)(=O)c1ccc([C@@H](C[C@H]2CCC(=O)C2)C(=O)Nc2cnccn2)cc1Cl [Piragliatin] | 
160.8 Å² |  | 157.4 Å² | O=C(O)c1ccccc1C(=O)OCc1ccccc1 [Monobenzyl phthalate] | 
